According to patent publication US6407112B1, “Optically active tetrahydrobenzindole derivative” (Meiji Seika Kaisha, Ltd., priority 1998, dated 2002):
Where two headings read alike, the source gives them in different places.

Assays:
[1] = target: T1, cloned human 5-HT7 receptor (Homo sapiens, UniProt P34969); test: 5-HT7 receptor-binding assay ([3H]-5CT); conditions: for Selectivity (ratio of Ki (5-HT2) with Ki (5-HT7)): Ki (5-HT2, rat cortex) / Ki (5-HT7, cloned human)
T1 construct: expressed in transfected cells
Procedure: 5-HT7 Receptor-binding Assay
Membranes from culture cells expressing cloned human 5-HT7 receptor were harvested and homogenized in 50 mM Tris-HCl assay buffer (pH 7.4) containing 10 mM MgCl2 and 0.5 mM EDTA with a potter-type homogenizer, and the suspension was centrifuged at 4° C., 39,000×g for 20 minutes. The resulting pellet was resuspended in the assay buffer at a proportion of 1 ml per an amount of a piece of culture petri dish having a diameter of 10 cm, and homogenized again.
The incubation was terminated by rapid filtration through GB/B filter, washed with 6 ml of ice-cold 50 mM Tris-HCl buffer (pH 7.4). The bound radioactivity was determined by liquid scintillation counter. While, non-specific binding was determined in the presence of 10 μM metergoline. The specific binding was calculated from the bound radioactivity after subtraction of non-specific binding.

[2] = target: T2, 5-HT2 receptor (rat cerebral cortex P2 fraction) (Rattus norvegicus, UniProt P14842); test: 5-HT2 receptor-binding assay ([3H]ketanserin)
T2 construct: Rat cerebral cortex was homogenized in 10 volumes of 0.32 M sucrose solution; from tissue; host or cells: rat cerebral cortex, P2 membrane fraction
Procedure: 5-HT2 Receptor-binding Assay
Rat cerebral cortex was homogenized in 10 volumes of 0.32 M sucrose solution. The supernatant obtained by centrifuging at 900×g for 10 minutes was further centrifuged at 11,500×g for 20 minutes. The pellet was resuspended in 50 mM Tris-HCl buffer (pH 7.4) and then centrifuged at 39,900×g for 20 minutes. The final pellet was used a P2 fraction.
P2 fraction was incubated in 50 mM tris-HCl buffer (pH 7.4) containing 1 nM [^3H]ketanserin and the compound of the present invention at 37° C. for 15 minutes and terminated by rapid filtration through GF/B filters. The bound radioactivity was determined by liquid scintillation counter. While, non-specific binding was determined in the presence of 10 μM ketanserin. Thus, the specific binding was calculated from the bound radioactivity after the subtraction of non-specific binding.

[3] = membranes of cultured cells expressing cloned human 5-HT7 receptor, 1 nM [3H]-5CT, 37° C., 30 minutes, Ki calculated from IC50, read-out: Receptor Binding Affinity Ki Value (5-HT7)
[4] = rat cerebral cortex P2 fraction, 1 nM [3H]ketanserin, 37° C., 15 minutes, Ki calculated from IC50, read-out: Receptor Binding Affinity Ki Value (5-HT2)

T2 sequence (P14842 whole entry): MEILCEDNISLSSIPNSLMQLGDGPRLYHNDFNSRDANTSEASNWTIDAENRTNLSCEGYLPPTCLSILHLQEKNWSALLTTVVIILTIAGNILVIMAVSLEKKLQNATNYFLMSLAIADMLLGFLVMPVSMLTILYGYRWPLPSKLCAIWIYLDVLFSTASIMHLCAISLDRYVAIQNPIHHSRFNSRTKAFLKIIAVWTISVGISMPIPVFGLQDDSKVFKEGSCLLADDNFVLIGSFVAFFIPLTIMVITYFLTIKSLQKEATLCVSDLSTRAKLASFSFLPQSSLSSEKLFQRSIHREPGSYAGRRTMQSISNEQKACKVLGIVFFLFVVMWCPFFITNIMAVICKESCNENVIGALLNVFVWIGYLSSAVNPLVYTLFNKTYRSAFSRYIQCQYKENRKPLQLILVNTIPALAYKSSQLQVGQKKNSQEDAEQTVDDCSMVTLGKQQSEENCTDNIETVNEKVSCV
T1 sequence (P34969 whole entry): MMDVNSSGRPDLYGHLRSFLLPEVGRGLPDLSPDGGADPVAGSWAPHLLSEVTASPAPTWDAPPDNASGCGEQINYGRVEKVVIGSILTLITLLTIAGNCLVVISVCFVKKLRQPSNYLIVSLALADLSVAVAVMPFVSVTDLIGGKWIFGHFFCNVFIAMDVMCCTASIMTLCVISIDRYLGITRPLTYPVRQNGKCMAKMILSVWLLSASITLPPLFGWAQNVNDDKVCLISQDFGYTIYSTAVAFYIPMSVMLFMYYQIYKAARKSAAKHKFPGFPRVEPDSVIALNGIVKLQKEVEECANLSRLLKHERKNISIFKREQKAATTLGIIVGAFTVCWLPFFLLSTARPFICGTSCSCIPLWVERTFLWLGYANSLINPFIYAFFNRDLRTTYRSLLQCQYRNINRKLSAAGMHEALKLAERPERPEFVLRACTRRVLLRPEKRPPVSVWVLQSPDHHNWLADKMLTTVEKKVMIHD

## O=C1Nc2cccc3c2C1(CCCCN1CC=C(c2ccccc2)CC1)CCC3 (racemic) [Racemic Mixture of Synthesis Example 15, reference compound]
[1]
  Ki: 9 nM
  Selectivity (ratio of Ki (5-HT2) with Ki (5-HT7)): 10
[2]
  Ki: 92 nM

## O=C1Nc2cccc3c2[C@@]1(CCCCN1CCc2ccccc2C1)CCC3 [Synthesis Example 18, (S)-2a-(4-(1,2,3,4-tetrahydroisoquinolin-2-yl)-butyl)-2a,3,4,5-tetrahydro-1H-benz[cd]indol-2-one]
[1]
  Selectivity (ratio of Ki (5-HT2) with Ki (5-HT7)): >125
[1]; [3]
  Ki: 7.7 nM
[2]; [4]
  Ki: > 1000 nM

## CN(C)C(=O)n1c2c(c3ccccc31)CCN(CCCCC13CCCc4cccc(c41)NC3=O)C2 (racemic) [Racemic Mixture of Synthesis Example 17, reference compound]
[1]
  Selectivity (ratio of Ki (5-HT2) with Ki (5-HT7)): 121
[1]; [3]
  Ki: 8 nM
[2]; [4]
  Ki: 970 nM

## COc1ccccc1N1CCN(CCCCC23CCCc4cccc(c42)NC3=O)CC1 (racemic) [Racemic Mixture of Synthesis Example 14, reference compound]
[1]
  Selectivity (ratio of Ki (5-HT2) with Ki (5-HT7)): 7
[2]; [4]
  Ki: 60 nM

## CNC(=O)Cn1c2c(c3ccccc31)CCN(CCCC[C@@]13CCCc4cccc(c41)NC3=O)C2 [Synthesis Example 22, (S)-2a-(4-(9-methylcarbamoylmethyl-2,3,4,9-tetrahydro-1H-pyrido[3,4-b]indol-2-yl)butyl)-2a,3,4,5-tetrahydro-1H-benz[cd]indol-2-one]
[1]
  Selectivity (ratio of Ki (5-HT2) with Ki (5-HT7)): >667
[1]; [3]
  Ki: 1.5 nM
[2]; [4]
  Ki: > 1000 nM

## O=C1Nc2cccc3c2[C@@]1(CCCCN1CC=C(c2ccccc2)CC1)CCC3 [Synthesis Example 15, (S)-2a-(4-(4-phenyl-1,2,3,6-tetrahydropyridin)-1-ylbutyl)-2a,3,4,5-tetrahydro-1H-benz[cd]indol-2-one]
[1]
  Ki: 1.3 nM
  Selectivity (ratio of Ki (5-HT2) with Ki (5-HT7)): 32
[2]
  Ki: 42 nM

## O=C1Nc2cccc3c2C1(CCCCN1CCc2ccccc2C1)CCC3 (racemic) [Racemic Mixture of Synthesis Example 18, reference compound]
[1]
  Selectivity (ratio of Ki (5-HT2) with Ki (5-HT7)): 79
[1]; [3]
  Ki: 8 nM
[2]; [4]
  Ki: 628 nM

## CN(C)C(=O)n1c2c(c3ccccc31)CCN(CCCC[C@@]13CCCc4cccc(c41)NC3=O)C2 [Synthesis Example 17, (S)-2a-[4-(9-dimethylcarbamoyl-2,3,4,9-tetrahydro-1H-pyrido[3,4-b]indol-2-yl)-butyl]-2a,3,4,5-tetrahydro-1H-benz[cd]indol-2-one]
[1]
  Selectivity (ratio of Ki (5-HT2) with Ki (5-HT7)): >250
[1]; [3]
  Ki: 4 nM
[2]; [4]
  Ki: > 1000 nM

## COc1ccccc1N1CCN(CCCC[C@@]23CCCc4cccc(c42)NC3=O)CC1 [Synthesis Example 14, (S)-2a-(4-(4-(2-methoxyphenyl)piperazinyl)butyl)-2a,3,4,5-tetrahydro-1H-benz[cd]indol-2-one]
[1]
  Selectivity (ratio of Ki (5-HT2) with Ki (5-HT7)): 49
[1]; [3]
  Ki: 1.7 nM
[2]; [4]
  Ki: 84 nM

## CNC(=O)Cn1c2c(c3ccccc31)CCN(CCCCC13CCCc4cccc(c41)NC3=O)C2 (racemic) [Racemic Mixture of Synthesis Example 22, reference compound]
[1]
  Selectivity (ratio of Ki (5-HT2) with Ki (5-HT7)): >278
[1]; [3]
  Ki: 3.6 nM
[2]; [4]
  Ki: > 1000 nM
